Values of other authors as cited in patent US11207270B2, “Controlled release dosage forms for high dose, water soluble and hygroscopic drug substances” (priority 2010, dated 2021).

Legend:
[1] = given orally, in man
[2] = test system: patients with hyperkinetic movement disorders including ethanol responsive myoclonus and essential tremor; conditions: 5 patients
[3] = test system: non-narcoleptic patients with fibromyalgia
[4] = test system: patients suffering from disorders of disturbed sleep, including narcolepsy; conditions: human, in vivo

SMILES: O=C([O-])CCCO.[Na+] [sodium oxybate]
- plasma half-life [1]: about 45 minutes
- blinded ratings of ethanol responsive myoclonus and tremor [2]: dose-dependent improvements
- tolerability [2]: tolerated at doses that provided clinical benefit

SMILES: O=C(O)CCCO [GHB, gamma-hydroxy butyrate]
- estimates of overall wellness ([3]; before and after treatment): significant improvement
- subjective assessments of levels of pain and fatigue ([3]; over all 4 weeks of treatment compared to baseline): significant improvements
- plasma levels (immediate release formulation, dose between about 2.25 g and 4.5 g, within 4 hours of ingestion): below 10 ug/mL
- Cmax/Cmin ratio (two separate immediate release doses, over a six hour period): greater than 4
- Stage 3-4 (slow wave) sleep [4]: increase
- nocturnal awakenings [4]: decrease
- total nocturnal sleep time [4]: increase
